Results taken from patent US20260070899A1, “N-(2-(4-CYANOTHIAZOLIDIN-3-YL)-2-OXOETHYL)-QUINOLINE-4-CARBOXAMIDES” (AstraZeneca AB, priority 2022, published 2026).

Experiments:
[1] = target: T1, Prolyl endopeptidase, Prolyl Oligopeptidase (hPREP) (Homo sapiens, UniProt P48147); assay: biochemical
T1 sequence (P48147 1-710): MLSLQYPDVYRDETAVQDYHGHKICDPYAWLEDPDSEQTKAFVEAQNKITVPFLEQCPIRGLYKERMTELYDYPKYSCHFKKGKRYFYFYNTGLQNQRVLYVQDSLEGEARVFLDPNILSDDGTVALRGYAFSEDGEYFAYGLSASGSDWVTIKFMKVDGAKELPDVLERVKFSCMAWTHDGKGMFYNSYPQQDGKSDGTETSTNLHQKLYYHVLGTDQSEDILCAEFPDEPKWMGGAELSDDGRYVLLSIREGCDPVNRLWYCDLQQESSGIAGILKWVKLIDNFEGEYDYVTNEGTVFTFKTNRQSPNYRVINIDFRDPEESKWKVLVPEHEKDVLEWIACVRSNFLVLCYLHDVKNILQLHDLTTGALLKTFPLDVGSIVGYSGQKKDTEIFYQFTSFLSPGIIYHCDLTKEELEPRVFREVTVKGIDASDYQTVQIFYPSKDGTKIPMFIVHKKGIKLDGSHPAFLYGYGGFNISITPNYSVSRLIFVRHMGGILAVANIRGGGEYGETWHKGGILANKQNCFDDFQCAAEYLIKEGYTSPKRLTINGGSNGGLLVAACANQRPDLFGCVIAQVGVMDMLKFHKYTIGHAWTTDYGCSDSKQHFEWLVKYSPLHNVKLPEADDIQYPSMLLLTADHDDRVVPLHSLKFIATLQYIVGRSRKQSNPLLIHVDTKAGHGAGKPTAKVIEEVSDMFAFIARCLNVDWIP
Procedure: Compounds were tested in a biochemical inhibition assay using Prolyl endopeptidase, Prolyl Oligopeptidase (hPREP) enzyme at 0.6 nM FAC (R&D Systems, 4308-SE) and the substrate Z-Gly-Pro-amino-methylcoumarin (Bachem, I-1145) at 50 μM FAC. 384 Low volume black plates (Greiner #784076) were used. […] Plates were incubated for 15 min at rt in dark. 4 μL, 100 μM substrate solution (25 mM Tris HCl, 250 mM NaCl, 0.01% Triton X-100, 5 mM Glutathione, pH 7.5) was added to each well. Plates were centrifuged at 1000 rpm and incubated for 20 min at rt in dark. The plates were read on a PHERAstar® reader with excitation 340 nm and emission 460 nm. Data were analyzed in Genedata Screener®. IC50 values were determined by plotting % inhibition versus log compound concentration and using a one site dose response model.

hFAP (M39-A757) = target: T2, hFAP (M39-A757) (Homo sapiens, UniProt Q12884); assay: biochemical;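 further: surface plasmon resonance direct binding to hFAP amine-coupled on a sensor chip, rising compound concentrations by single cycle kinetics, Kd from global fit of interaction models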
T2 sequence (Q12884 39-757): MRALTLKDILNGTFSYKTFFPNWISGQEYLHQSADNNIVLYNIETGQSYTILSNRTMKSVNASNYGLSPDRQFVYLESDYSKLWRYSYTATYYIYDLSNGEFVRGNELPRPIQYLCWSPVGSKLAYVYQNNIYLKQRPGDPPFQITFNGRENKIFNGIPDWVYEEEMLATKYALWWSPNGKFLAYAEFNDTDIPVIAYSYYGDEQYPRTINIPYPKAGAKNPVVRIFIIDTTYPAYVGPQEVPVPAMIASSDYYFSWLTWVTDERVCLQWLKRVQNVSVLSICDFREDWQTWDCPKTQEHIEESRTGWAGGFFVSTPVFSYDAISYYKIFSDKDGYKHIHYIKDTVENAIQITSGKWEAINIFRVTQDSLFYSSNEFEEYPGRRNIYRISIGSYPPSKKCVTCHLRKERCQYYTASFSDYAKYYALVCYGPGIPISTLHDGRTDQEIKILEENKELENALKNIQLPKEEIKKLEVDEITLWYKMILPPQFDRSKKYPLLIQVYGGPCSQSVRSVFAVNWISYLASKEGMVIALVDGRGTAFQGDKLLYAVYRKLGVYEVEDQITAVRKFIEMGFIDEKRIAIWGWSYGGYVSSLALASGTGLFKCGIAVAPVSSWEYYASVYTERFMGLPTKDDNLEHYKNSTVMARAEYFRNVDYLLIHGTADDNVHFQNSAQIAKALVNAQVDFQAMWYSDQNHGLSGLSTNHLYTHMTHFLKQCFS
Procedure: Compounds were tested in a direct binding assay using 8K surface plasmon resonance biosensor (GE Healthcare) at 20° C. Immobilization of hFAP (M39-A757) on a CMD200M sensor chip (Xantec) was performed using standard amine coupling procedure in immobilization buffer (10 mM HEPES, 150 mM NaCl, 0.05% Tween20, pH 7.4). The surface was washed with 10 mM aq NaOH, 1M NaCl before being activated with EDC/NHS (GE Healthcare), followed by immobilization of hFAP (in 10 mM Acetate pH 5.0). Finally, the surface was deactivated by ethanolamine. Immobilization levels of hFAP were around 4000-6000 RU. The reference spot was treated as described, omitting the injection of hFAP. Compound concentration series were injected over the immobilized protein in increasing concentrations (2-500 nM) using single cycle kinetics in running buffer (20 mM TRIS, 150 mM NaCl, 0.05% Tween20, 1% DMSO, pH 7.4). Interaction models were fitted globally to the experimental traces, enabling determination of kon, koff and Kd.

**Q.** Which IC50 [1] does the source give for `CC1(C)CC(Oc2ccc3nccc(C(=O)NCC(=O)N4CSC[C@H]4C#N)c3c2)CCO1` (mixture of isomers) [Example 9, N-(2-((R)-4-Cyanothiazolidin-3-yl)-2-oxoethyl)-6-(((RS)-2,2-dimethyltetrahydro-2H-pyran-4-yl)oxy)quinoline-4-carboxamide] here?
**A.** 870 nM

**Q.** With `CC(c1ccc2nccc(C(=O)NCC(=O)N3CSC[C@H]3C#N)c2c1)c1ncccc1F` (mixture of isomers) [Example 12, N-(2-((R)-4-Cyanothiazolidin-3-yl)-2-oxoethyl)-6-((RS)-1-(3-fluoropyridin-2-yl)ethyl)quinoline-4-carboxamide] as the compound, how does the Kd (hFAP (M39-A757)) read?
**A.** 0.19 nM

**Q.** What about the IC50 [1] of the same compound?
**A.** 110 nM

**Q.** How did the IC50 [1] turn out when `N#C[C@@H]1CSCN1C(=O)CNC(=O)c1ccnc2ccc(COC3CCOC3)cc12` (mixture of isomers) [Example 35, N-(2-((R)-4-Cyanothiazolidin-3-yl)-2-oxoethyl)-6-((((RS)-tetrahydrofuran-3-yl)oxy)methyl)quinoline-4-carboxamide] was run?
**A.** 460 nM

**Q.** How did the Kd (hFAP (M39-A757)) turn out when `Cc1cc(C(C)c2ccc3nccc(C(=O)NCC(=O)N4CSC[C@H]4C#N)c3c2)no1` (mixture of isomers) [Example 46, N-(2-((R)-4-Cyanothiazolidin-3-yl)-2-oxoethyl)-6-((RS)-1-(5-methylisoxazol-3-yl)ethyl)quinoline-4-carboxamide] was run?
**A.** 0.13 nM

**Q.** And the IC50 [1]?
**A.** 80 nM

**Q.** How did the Kd (hFAP (M39-A757)) turn out when `N#C[C@@H]1CSCN1C(=O)CNC(=O)c1ccnc2ccc(CC3CCOC3)cc12` (mixture of isomers) [Example 65, N-(2-((R)-4-Cyanothiazolidin-3-yl)-2-oxoethyl)-6-(((RS)-tetrahydrofuran-3-yl)methyl)quinoline-4-carboxamide] was run?
**A.** 0.091 nM

**Q.** And the IC50 [1]?
**A.** 210 nM

**Q.** `N#C[C@@H]1CSCN1C(=O)CNC(=O)c1ccnc2ccc([C@H]3CC[C@H](C#N)CC3)cc12` (single isomer, unassigned) [Example 54, 6-((1r,4R*)-4-Cyanocyclohexyl)-N-(2-((R)-4-cyanothiazolidin-3-yl)-2-oxoethyl)quinoline-4-carboxamide] was tested. Which IC50 [1] did it give?
**A.** 620 nM

**Q.** With `N#C[C@@H]1CSCN1C(=O)CNC(=O)c1ccnc2ccc([C@H]3CC[C@H](C#N)CC3)cc12` (single isomer, unassigned) [Example 55, 6-((1r,4R*)-4-Cyanocyclohexyl)-N-(2-((R)-4-cyanothiazolidin-3-yl)-2-oxoethyl)quinoline-4-carboxamide] as the compound, how does the IC50 [1] read?
**A.** 330 nM

**Q.** Which Kd (hFAP (M39-A757)) does the source give for `CO[C@H]1C[C@](F)(c2ccc3nccc(C(=O)NCC(=O)N4CSC[C@H]4C#N)c3c2)C1` (single isomer, unassigned) [Example 62, N-(2-((R)-4-Cyanothiazolidin-3-yl)-2-oxoethyl)-6-((1r,3R*)-1-fluoro-3-methoxycyclobutyl)quinoline-4-carboxamide] here?
**A.** 0.11 nM

**Q.** What about the IC50 [1] of the same compound?
**A.** 520 nM

**Q.** With `CO[C@H]1C[C@](F)(c2ccc3nccc(C(=O)NCC(=O)N4CSC[C@H]4C#N)c3c2)C1` (single isomer, unassigned) [Example 63, N-(2-((R)-4-Cyanothiazolidin-3-yl)-2-oxoethyl)-6-((1r,3R*)-1-fluoro-3-methoxycyclobutyl)quinoline-4-carboxamide] as the compound, how does the Kd (hFAP (M39-A757)) read?
**A.** 0.097 nM

**Q.** What about the IC50 [1] of the same compound?
**A.** 330 nM

**Q.** Which IC50 [1] does the source give for `CO[C@H]1CC[C@@H](c2ccc3nccc(C(=O)NCC(=O)N4CSC[C@H]4C#N)c3c2)CC1` (single isomer, unassigned) [Example 79, N-(2-((R)-4-Cyanothiazolidin-3-yl)-2-oxoethyl)-6-((1r,4R*)-4-methoxycyclohexyl)quinoline-4-carboxamide] here?
**A.** 610 nM

**Q.** `N#C[C@@H]1CSCN1C(=O)CNC(=O)c1ccnc2ccc(OCC3CC3)cc12` [Example 5, (R)—N-(2-(4-Cyanothiazolidin-3-yl)-2-oxoethyl)-6-(cyclopropyl-methoxy)quinoline-4-carboxamide] was tested. Which IC50 [1] did it give?
**A.** 400 nM

**Q.** Which IC50 [1] does the source give for `N#CCOc1ccc2nccc(C(=O)NCC(=O)N3CSC[C@H]3C#N)c2c1` [Example 10, (R)-6-(Cyanomethoxy)-N-(2-(4-cyanothiazolidin-3-yl)-2-oxoethyl)quinoline-4-carboxamide] here?
**A.** 32 nM

**Q.** How did the IC50 [1] turn out when `CC(F)(F)COc1ccc2nccc(C(=O)NCC(=O)N3CSC[C@H]3C#N)c2c1` [Example 11, (R)—N-(2-(4-Cyanothiazolidin-3-yl)-2-oxoethyl)-6-(2,2-difluoropropoxy)quinoline-4-carboxamide] was run?
**A.** 290 nM

**Q.** How did the Kd (hFAP (M39-A757)) turn out when `N#C[C@@H]1CSCN1C(=O)CNC(=O)c1ccnc2ccc(CN3CCOCC3)cc12` [Example 24, (R)—N-(2-(4-Cyanothiazolidin-3-yl)-2-oxoethyl)-6-(morpholino-methyl)quinoline-4-carboxamide] was run?
**A.** 0.33 nM

**Q.** What about the IC50 [1] of the same compound?
**A.** 1000 nM

**Q.** How did the IC50 [1] turn out when `CCOCc1ccc2nccc(C(=O)NCC(=O)N3CSC[C@H]3C#N)c2c1` [Example 27, (R)—N-(2-(4-cyanothiazolidin-3-yl)-2-oxoethyl)-6-(ethoxymethyl)-quinoline-4-carboxamide] was run?
**A.** 140 nM

**Q.** Which results are given for `COCCOCc1ccc2nccc(C(=O)NCC(=O)N3CSC[C@H]3C#N)c2c1` [Example 31, (R)—N-(2-(4-Cyanothiazolidin-3-yl)-2-oxoethyl)-6-((2-methoxyethoxy)-methyl)quinoline-4-carboxamide]?
**A.** Kd (hFAP (M39-A757)): 0.4 nM; IC50 [1]: 910 nM

**Q.** Which IC50 [1] does the source give for `N#C[C@@H]1CSCN1C(=O)CNC(=O)c1ccnc2ccc(COCC(F)F)cc12` [Example 36, (R)—N-(2-(4-Cyanothiazolidin-3-yl)-2-oxoethyl)-6-((2,2-difluoroethoxy)methyl)quinoline-4-carboxamide] here?
**A.** 170 nM

**Q.** For `N#C[C@@H]1CSCN1C(=O)CNC(=O)c1ccnc2ccc(COC3CC3)cc12` [Example 37, (R)—N-(2-(4-Cyanothiazolidin-3-yl)-2-oxoethyl)-6-(cyclopropoxy-methyl)quinoline-4-carboxamide], which IC50 [1] is on record?
**A.** 170 nM

**Q.** How did the Kd (hFAP (M39-A757)) turn out when `N#C[C@@H]1CSCN1C(=O)CNC(=O)c1ccnc2ccc(C3(c4ncccc4F)CC3)cc12` [Example 44, (R)—N-(2-(4-Cyanothiazolidin-3-yl)-2-oxoethyl)-6-(1-(3-fluoropyridin-2-yl)cyclopropyl)quinoline-4-carboxamide] was run?
**A.** 0.14 nM

**Q.** What about the IC50 [1] of the same compound?
**A.** 65 nM

**Q.** How did the IC50 [1] turn out when `Cc1cc(C2(c3ccc4nccc(C(=O)NCC(=O)N5CSC[C@H]5C#N)c4c3)CC2)on1` [Example 50, (R)—N-(2-(4-Cyanothiazolidin-3-yl)-2-oxoethyl)-6-(1-(3-methylisoxazol-5-yl)cyclopropyl)quinoline-4-carboxamide] was run?
**A.** 130 nM

**Q.** Which IC50 [1] does the source give for `N#C[C@@H]1CSCN1C(=O)CNC(=O)c1ccnc2ccc(CC3CCOCC3)cc12` [Example 56, (R)—N-(2-(4-Cyanothiazolidin-3-yl)-2-oxoethyl)-6-((tetrahydro-2H-pyran-4-yl)methyl)quinoline-4-carboxamide] here?
**A.** 500 nM

**Q.** How did the IC50 [1] turn out when `C#CC1(c2ccc3nccc(C(=O)NCC(=O)N4CSC[C@H]4C#N)c3c2)CCOCC1` [Example 57, (R)—N-(2-(4-Cyanothiazolidin-3-yl)-2-oxoethyl)-6-(4-ethynyl-tetrahydro-2H-pyran-4-yl)quinoline-4-carboxamide] was run?
**A.** 790 nM

**Q.** With `CCCOc1ccc2nccc(C(=O)NCC(=O)N3CSC[C@H]3C#N)c2c1` [Example 73, (R)—N-(2-(4-Cyanothiazolidin-3-yl)-2-oxoethyl)-6-propoxyquinoline-4-carboxamide] as the compound, how does the IC50 [1] read?
**A.** 160 nM

**Q.** With `N#C[C@@H]1CSCN1C(=O)CNC(=O)c1ccnc2ccc(OCCF)cc12` [Example 74, (R)—N-(2-(4-Cyanothiazolidin-3-yl)-2-oxoethyl)-6-(2-fluoroethoxy)-quinoline-4-carboxamide] as the compound, how does the IC50 [1] read?
**A.** 83 nM

**Q.** With `N#C[C@@H]1CSCN1C(=O)CNC(=O)c1ccnc2ccc(C3(F)CCC3)cc12` [Example 75, (R)—N-(2-(4-Cyanothiazolidin-3-yl)-2-oxoethyl)-6-(1-fluoro-cyclobutyl)quinoline-4-carboxamide] as the compound, how does the IC50 [1] read?
**A.** 46 nM

**Q.** How did the IC50 [1] turn out when `COCCCc1ccc2nccc(C(=O)NCC(=O)N3CSC[C@H]3C#N)c2c1` [Example 81, (R)—N-(2-(4-cyanothiazolidin-3-yl)-2-oxoethyl)-6-(3-methoxypropyl)quinoline-4-carboxamide] was run?
**A.** 62 nM

**Q.** How did the IC50 [1] turn out when `COCCc1ccc2nccc(C(=O)NCC(=O)N3CSC[C@H]3C#N)c2c1` [Example 82, (R)—N-(2-(4-cyanothiazolidin-3-yl)-2-oxoethyl)-6-(2-methoxyethyl)quinoline-4-carboxamide] was run?
**A.** 48 nM
